Source: patent publication US12220390B2, “Mirdametinib treatment” (SpringWorks Therapeutics, Inc., priority 2022, dated 2025)

Tested on: patients ≥2 and <25 years with brain cancer
Test: Phase I/II trial of single agent mirdametinib in children, adolescents and young adults with brain cancer
Assay type: in vivo, human
Method: A multi-arm phase I/II trial of mirdametinib is to be conducted in patients ≥2 and <25 years with brain cancer. Phase I requires participants have no prior exposure to MEK inhibitors and recurrent/progressive disease with biopsy-proven evidence of MAPK pathway activation. Three escalating dose levels (2 mg/m^2/dose BID, 2.5 mg/m^2/dose BID and 3 mg/m^2/dose BID) are planned using a rolling 6 design. The median age enrolled in the study is 10 years old (3-21).

[1] = patients with brain cancer, 2-3 mg/m^2/dose BID

O=C(NOC[C@H](O)CO)c1ccc(F)c(F)c1Nc1ccc(I)cc1F (single isomer, unassigned) [mirdametinib]
dose-limiting toxicities (all three dose levels (2, 2.5 and 3 mg/m^2/dose BID), continuous dosing, patients with brain cancer): No dose-limiting toxicities
tolerability (dosed continuously in patients with brain cancer): well-tolerated
MEK related retinopathy or cardiopathy [1]: No MEK related retinopathy or cardiopathy is observed
disease progressions [1]: No disease progressions
